Key:
Assay in all cases: relative viability (nuclei count vs DMSO), 5 days (fraction); higher = more cells survive
[1] = compound: CC(C)C[C@@H](C(=O)N[C@H](C(=O)OC1CCCC1)c1ccccc1)[C@H](O)C(=O)NO [Tosedostat] + Cc1cc(Nc2cc(N3CCN(C)CC3)nc(Sc3ccc(NC(=O)C4CC4)cc3)n2)n[nH]1 [Tozasertib] (partner 0.1 µM)
How it was run: (§1)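 Each reported value is a median over duplicate plates. It expresses relative viability: treated-well nuclei count divided by vehicle-well nuclei count. Lung cancer cell lines in 1536-well plates were dosed by pin tool a day after seeding, alone with one drug or with a fixed anchor-drug dose plus five library-drug doses (not always all listed) in √10 steps, and nuclei were counted after 5 days.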

[2] = compound: CC(C)C[C@@H](C(=O)N[C@H](C(=O)OC1CCCC1)c1ccccc1)[C@H](O)C(=O)NO [Tosedostat] + CC(C)C[C@H](NC(=O)[C@H](Cc1ccccc1)NC(=O)c1cnccn1)B(O)O [Bortezomib] (partner 0.002 µM)
How it was run: as §1

[3] = compound: CC(C)C[C@@H](C(=O)N[C@H](C(=O)OC1CCCC1)c1ccccc1)[C@H](O)C(=O)NO [Tosedostat] + CS(=O)(=O)CCNCc1ccc(-c2ccc3ncnc(Nc4ccc(OCc5cccc(F)c5)c(Cl)c4)c3c2)o1 [Lapatinib] (partner 2 µM)
How it was run: as §1

[4] = compound: CC(C)C[C@@H](C(=O)N[C@H](C(=O)OC1CCCC1)c1ccccc1)[C@H](O)C(=O)NO [Tosedostat] + O=C(c1cc(Cc2n[nH]c(=O)c3ccccc23)ccc1F)N1CCN(C(=O)C2CC2)CC1 [Olaparib] (partner 8 µM)
How it was run: as §1

Cell Line	relative viability ([1]; first compound 0.02 µM)	relative viability ([1]; first compound 0.06325 µM)	relative viability ([1]; first compound 0.2 µM)	relative viability ([1]; first compound 0.6325 µM)	relative viability ([1]; first compound 2 µM)	relative viability ([2]; first compound 0.02 µM)	relative viability ([2]; first compound 0.06325 µM)	relative viability ([2]; first compound 0.2 µM)	relative viability ([2]; first compound 0.6325 µM)	relative viability ([2]; first compound 2 µM)	relative viability ([3]; first compound 0.02 µM)	relative viability ([3]; first compound 0.06325 µM)	relative viability ([3]; first compound 0.2 µM)	relative viability ([3]; first compound 0.6325 µM)	relative viability ([3]; first compound 2 µM)	relative viability ([4]; first compound 0.02 µM)	relative viability ([4]; first compound 0.06325 µM)	relative viability ([4]; first compound 0.2 µM)	relative viability ([4]; first compound 0.6325 µM)	relative viability ([4]; first compound 2 µM)
LXF-289	0.198	0.167	0.169	0.122	0.0708	1.05	0.992	0.974	0.978	0.989	0.967	0.883	0.935	0.868	0.92	1.08	0.958	1.07	0.969	0.942
ABC-1	0.17	0.194	0.137	0.118	0.17	0.289	0.344	0.328	0.274	0.306	1.34	1.12	1.2	1.19	1.23	0.842	0.784	0.843	0.848	0.491
NCI-H1437	0.403	0.395	0.389	0.337	0.166	0.465	0.512	0.488	0.524	0.324	0.749	0.809	0.744	0.727	0.661	0.641	0.615	0.659	0.596	0.604
NCI-H2087	0.301	0.284	0.277	0.108	0.081	0.902	0.795	0.802	0.703	0.688	1.08	1.1	1.1	0.907	0.844	0.698	0.562	0.558	0.339	0.36
NCI-H647	0.37	0.262	0.339	0.175	0.367	1.03	0.947	0.788	1.07	0.829	1.17	1.11	1.07	0.926	0.969	0.799	0.446	0.506	0.376	0.51
SW 1573	0.183	0.193	0.205	0.219	0.157	1.1	0.96	0.938	0.709	0.949	1.18	1.12	1.19	1.05	1.05	0.493	0.42	0.363	0.372	0.281
HARA	0.111	0.129	0.0782	0.0748	0.07	1.16	1.08	1.1	1.1	0.942	0.756	0.797	0.611	0.775	0.574	0.762	0.853	0.779	0.519	0.662
NCI-H2347	0.519	0.509	0.504	0.435	0.41	1.25	1.36	1.35	1.05	0.694	1.12	1.02	1.03	0.892	0.888	0.694	0.618	0.539	0.58	0.484
NCI-H1651	0.726	0.645	0.637	0.678	0.554	0.973	1.03	0.834	0.834	0.914	0.883	0.81	0.77	0.816	0.697	0.201	0.203	0.168	0.156	0.141
NCI-H2009	0.821	0.765	0.697	0.647	0.607	1.3	1.02	0.971	0.926	0.728	1.25	0.956	1.03	0.78	0.663	0.702	0.592	0.661	0.603	0.544
PC-3 [JPC-3]	0.892	0.954	0.87	0.802	0.571	0.819	0.771	0.823	0.776	0.552	0.445	0.453	0.432	0.452	0.428	1.11	1.11	1	0.921	0.747
COR-L23	0.214	0.165	0.172	0.161	0.128	1.22	0.918	0.914	0.969	1.1	1.03	0.946	0.918	0.817	0.99	0.471	0.295	0.291	0.269	0.268
COR-L 105	0.359	0.291	0.392	0.378	0.338	0.733	0.605	0.807	0.781	0.542	0.415	0.412	0.326	0.416	0.358	0.771	0.636	0.695	0.507	0.591
201T	0.938	1.02	1.06	1.11	0.968	1.1	1.08	1.14	1.14	1.21	1.05	1.06	1.06	1.09	1.13	0.824	0.913	0.874	0.896	0.862
HCC-44	1.18	0.893	0.885	0.806	0.338	0.886	0.883	0.937	0.793	0.459	1.04	0.994	0.94	0.937	0.678	0.965	0.984	0.97	0.949	0.916
NCI-H838	0.273	0.262	0.305	0.283	0.255	0.82	0.852	0.646	0.918	1.1	0.93	0.914	0.961	0.904	1.24	0.839	0.716	0.735	0.739	0.729

— the supplement of paper PMC10307832
